In US20090215758A1, “Use of 2,5-Disubstituted Thiazol-4-One Derivatives in Drugs” (Gruenenthal GmbH, priority 2005, published 2009):
pEC50: −log10 of the molar value. Structures can show the parent of a compound that is named as a salt.

Assays:
[1] = molecular target: T1, vanilloid receptor 1 (VR1/TRPV1) of the rat species (Rattus norvegicus, UniProt O35433); assay: Functional study on vanilloid receptor 1, FLIPR Ca2+ assay in rat dorsal root ganglia cells; format: cell-based; conditions: for inhibition at 10 µM: 5 min incubation, then 100 nM capsaicin, relative to maximum inhibition with 10 μM capsaicin, read-out: VR1 (rat) (% inhibition compared to 10 μM CP); for activation at 10 µM: read-out: VR1 (rat) (% stimulation compared to 10 μM CP); for pEC50: unit inferred
T1 construct: The spinal column is removed from beheaded rats; from tissue; host or cells: primary cells from rat dorsal root ganglia (DRGs)
T1 sequence (O35433 whole entry): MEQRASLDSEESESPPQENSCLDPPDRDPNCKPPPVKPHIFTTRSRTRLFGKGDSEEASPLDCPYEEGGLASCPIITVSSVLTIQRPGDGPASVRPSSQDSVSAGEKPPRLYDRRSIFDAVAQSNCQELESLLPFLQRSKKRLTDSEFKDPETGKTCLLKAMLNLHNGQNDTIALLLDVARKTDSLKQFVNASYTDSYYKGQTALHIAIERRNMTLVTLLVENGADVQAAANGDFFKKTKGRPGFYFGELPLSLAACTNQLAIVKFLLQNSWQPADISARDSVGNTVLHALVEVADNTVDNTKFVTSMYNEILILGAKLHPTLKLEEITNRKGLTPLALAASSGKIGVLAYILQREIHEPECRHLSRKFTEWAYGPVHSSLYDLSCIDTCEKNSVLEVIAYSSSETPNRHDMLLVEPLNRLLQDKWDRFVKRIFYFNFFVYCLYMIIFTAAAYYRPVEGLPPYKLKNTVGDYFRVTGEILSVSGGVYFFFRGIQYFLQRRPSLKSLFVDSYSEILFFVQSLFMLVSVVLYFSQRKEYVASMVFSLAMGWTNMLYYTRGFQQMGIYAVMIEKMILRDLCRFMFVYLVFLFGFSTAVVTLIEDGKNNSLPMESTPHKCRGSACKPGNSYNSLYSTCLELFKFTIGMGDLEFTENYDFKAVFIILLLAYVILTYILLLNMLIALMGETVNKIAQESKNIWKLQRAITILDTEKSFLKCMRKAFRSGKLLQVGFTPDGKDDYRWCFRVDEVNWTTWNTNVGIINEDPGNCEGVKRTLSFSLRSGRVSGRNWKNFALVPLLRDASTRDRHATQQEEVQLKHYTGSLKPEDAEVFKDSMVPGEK
Method: The agonistic or antagonistic action of the substances to be studied on the vanilloid receptor 1 (VR1/TRPV1) of the rat species can be determined with the following assay. In this assay, the Ca^2+ current through the receptor channel is quantified with the aid of a Ca^2+-sensitive dye (Fluo-4 type, Molecular Probes Europe BV, Leiden the Netherlands) in a fluorescent imaging plate reader (FLIPR, Molecular Devices, Sunnyvale, USA).
Complete medium: 50 ml HAMS F12 Nutrient Mixture (Gibco Invitrogen GmbH, Karlsruhe, Germany) with 10% by volume of FCS (fetal calf serum, Gibco Invitrogen GmbH, Karlsruhe, Germany, heat-inactivated);
2 mM L-glutamine (Sigma, Munich, Germany);
1% by weight of AA solution (antibiotic/antimycotic solution, PAA, Pasching, Austria) and 25 ng/ml of NGF medium (2.5 S, Gibco Invitrogen GmbH, Karlsruhe, Germany)
Cell culture plate: poly-D-lysine-coated, black 96-hole plates with a clear bottom (96 well black/clear plate, BD Biosciences, Heidelberg, Germany) are additionally coated with laminin (Gibco Invitrogen GmbH, Karlsruhe, Germany) by diluting laminin to a concentration of 100 μg/ml with PBS (Ca—Mg-free PBS, Gibco Invitrogen GmbH, Karlsruhe, Germany). Aliquots having a concentration of 100 μg/ml of laminin are withdrawn and stored at −20° C. The aliquots are diluted with PBS in a ratio of 1:10 to 10 μg/ml of laminin and in each case 50 μl of the solution are pipetted into a well of the cell culture plate. The cell culture plates are incubated at 37° C. for at least two hours, the supernatant solution is removed by suction and the wells are each washed twice with PBS. The coated cell culture plates are stored with supernatant PBS which is not removed until directly before the application of the cells.
The spinal column is removed from beheaded rats and placed directly into cold HBSS buffer (Hank's buffered saline solution, Gibco Invitrogen GmbH, Karlsruhe, Germany), i.e. placed in an ice bath, which has been admixed with 1% by volume of an AA solution (antibiotic/antimycotic solution, PAA, Pasching, Austria). The spinal column is severed longitudinally and removed from the spinal canal together with fasciae. Subsequently, the dorsal root ganglia (DRGs) are removed and in turn stored in cold HBSS buffer admixed with 1% by volume of an AA solution. The DRGs freed completely of blood residues and spinal nerves are in each case transferred to 500 μl of cold type 2 collagenase (PAA, Pasching, Austria) and incubated at 37° C. for 35 minutes. […] After complete incubation, the enzyme solution is cautiously pipetted off and the remaining DRGs are each suspended with 500 μl of complete medium.
The DRGs are each suspended repeatedly, drawn through cannulas No. 1, No. 12 and No. 16 by means of a syringe and transferred to 50 ml Falcon tubes which are made up to 15 ml with complete medium. The contents of each Falcon tube are in each case filtered through a 70 μm Falcon filter insert and centrifuged at 1200 revolutions and room temperature for 10 minutes. The resulting pellet is in each case taken up in 250 μl of complete medium and the cell count is determined.
The number of cells in the suspension is adjusted to 3 times 10^5 per ml and in each case 150 μl of this suspension are added to one well of the cell culture plates coated as described above.
Subsequently, the cells are laden with 2 μM Fluo-4 and 0.01% by volume of Pluronic F127 (Molecular Probes Europe BV, Leiden, the Netherlands) in HBSS buffer (Hank's buffered saline solution, Gibco Invitrogen GmbH, Karlsruhe, Germany) at 37° C. for 30 min, washed 3× with HBSS buffer and, after a further incubation of 15 minutes, used in the FLIPR assay at room temperature for Ca^2+ measurement. The Ca^2+-dependent fluorescence is measured before and after addition of substances (λex=488 nm, λem=540 nm). The quantification is effected by the measurement of the highest fluorescence intensity (FC, fluorescence counts) over the time.

VR1 (human) = molecular target: T2, VR1 (human) (Homo sapiens, UniProt Q8NER1); assay: Functional study on vanilloid receptor (VR1), FLIPR Ca2+ assay in CHO K1 cells stably transfected with the VR1 gene; format: cell-based; conditions: for inhibition at 10 µM / activation at 10 µM: CHO-K1, test compound 10 μM; for inhibition at 10 µM: 5 min incubation, then 100 nM capsaicin, compared to 10 μM CP; for activation at 10 µM: Ca2+ signal relative to 10 μM capsaicin (CP), read-out: VR1 (human) (% stimulation compared to 10 μM CP); for pEC50: unit inferred
T2 construct: expressed in transfected cells; host or cells: CHO K1 cells (ECACC), stably transfected
T2 sequence (Q8NER1 whole entry): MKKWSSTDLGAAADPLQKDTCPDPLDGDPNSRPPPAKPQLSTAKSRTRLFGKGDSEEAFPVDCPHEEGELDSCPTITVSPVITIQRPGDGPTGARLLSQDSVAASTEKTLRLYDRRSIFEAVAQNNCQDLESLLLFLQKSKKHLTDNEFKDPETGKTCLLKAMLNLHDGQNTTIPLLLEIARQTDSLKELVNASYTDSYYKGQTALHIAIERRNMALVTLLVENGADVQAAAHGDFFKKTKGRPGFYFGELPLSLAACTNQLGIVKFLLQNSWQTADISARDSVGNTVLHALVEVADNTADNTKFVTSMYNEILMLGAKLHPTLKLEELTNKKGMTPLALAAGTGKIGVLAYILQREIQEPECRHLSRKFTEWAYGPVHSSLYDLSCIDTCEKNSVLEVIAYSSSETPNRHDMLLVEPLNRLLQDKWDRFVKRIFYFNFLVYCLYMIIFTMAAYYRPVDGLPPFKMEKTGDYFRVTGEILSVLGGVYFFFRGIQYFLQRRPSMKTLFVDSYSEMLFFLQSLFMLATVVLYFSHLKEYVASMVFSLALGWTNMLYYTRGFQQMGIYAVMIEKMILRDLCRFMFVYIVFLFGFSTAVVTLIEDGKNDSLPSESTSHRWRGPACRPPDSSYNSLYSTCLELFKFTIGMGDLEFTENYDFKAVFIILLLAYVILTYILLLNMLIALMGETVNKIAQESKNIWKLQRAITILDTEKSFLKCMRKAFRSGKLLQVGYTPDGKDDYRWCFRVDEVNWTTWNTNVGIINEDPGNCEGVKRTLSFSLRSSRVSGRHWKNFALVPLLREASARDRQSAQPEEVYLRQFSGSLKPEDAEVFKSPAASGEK
Excerpt: The agonistic or antagonistic action of the substances to be tested on vanilloid receptor (VR1) can also be determined with the assay which follows. In this assay, the Ca^2+ current through the channel is quantified with the aid of a Ca^2+-sensitive dye (Fluo-4 type, Molecular Probes, Europe BV, Leiden, the Netherlands) in a fluorescent imaging plate reader (FLIPR, Molecular Devices, Sunnyvale, USA).
Chinese hamster ovary cells (CHO K1 cells, European Collection of Cell Cultures (ECACC) Great Britain) are transfected stably with the VR1 gene. For functional studies, these cells are plated out onto poly-D-lysine-coated black 96-well plates with a clear bottom (BD Biosciences, Heidelberg, Germany) in a density of 25 000 cells/well. The cells are incubated overnight at 37° C. and 5% CO2 in a culture medium (Ham's Nutrient Mixture F12, 10% by volume of FCS (fetal calf serum), 18 μg/ml of L-proline). The next day, the cells are incubated with Fluo-4 (Fluo-4 2 μM, Pluronic F127 0.01% by volume, Molecular Probes in HBSS (Hank's buffered saline solution), Gibco Invitrogen GmbH, Karlsruhe, Germany) at 37° C. for 30 minutes. Subsequently, the plates are washed 3 times with HBSS buffer and, after a further incubation of 15 minutes at room temperature, used for Ca^2+ measurement in FLIPR. The Ca^2+-dependent fluorescence is measured before and after addition of the substances to be studied (wavelength λex=488 nm, λem=540 nm). The quantification is effected by measuring the highest fluorescence intensity (FC, fluorescence counts) over the time.
The FLIPR protocol consists of 2 substance additions. First, the substances to be tested (10 μM) are pipetted onto the cells and the Ca current is compared with the control (capsaicin 10 μM) (% activation based on the Ca^2+ signal after addition of 10 μM capsaicin). After incubation for 5 minutes, 100 nM capsaicin is applied and the current of Ca^2+ is likewise determined.

[2] = test compound 10 μM, Ca2+ signal relative to 10 μM capsaicin (CP)

Compound | inhibition at 10 µM ([1]; test compound 10 μM) | activation at 10 µM [1, 2] | inhibition at 10 µM (VR1 (human)) | activation at 10 µM (VR1 (human)) | pEC50 [1] | pEC50 (VR1 (human)) | VR1 (rat) (% stimulation compared to 10 μM CP) [1, 2]
O=C1N=C(N2CCOCC2)SC1=CC=CSc1ccccc1 [Example 12, 2-morpholin-4-yl-5-(3-phenylsulfanylallylidene)thiazol-4-one] | 68.4% | 54% | 54.3% | 55.4% |  |  | 
COc1ccc(C=C2SC(N3CCOCC3)=NC2=O)cc1OCc1ccccc1 [Example 13, 5-(3-benzyloxy-4-methoxybenzylidene)-2-morpholin-4-ylthiazol-4-one] | 46.2% | 42.1% | 11.1% | 6.15% |  |  | 
Cc1ccc(C=C2SC(N3CCSCC3)=NC2=O)cc1 [Example 14, 5-(4-methylbenzylidene)-2-thiomorpholin-4-ylthiazol-4-one hydrobromide] | 82.1% | 108% | 89.4% | 107% | 6.02 | 5.29 | 
O=C1N=C(N2CCOCC2)SC1=Cc1ccc(Oc2ccccc2)cc1 [Example 17, 2-morpholin-4-yl-5-(4-phenoxybenzylidene)thiazol-4-one] | 91.1% | 120% | 19.6% | 46% | 5.20 | 4.75 | 
O=C1N=C(N2CCOCC2)SC1=Cc1cccc(Oc2ccccc2)c1 [Example 18, 2-morpholin-4-yl-5-(3-phenoxybenzylidene)thiazol-4-one] | 88% | 144% | 79.2% | 139% | 5.89 | 5.44 | 
Cc1ccc(C=CC=C2SC(N3CCOCC3)=NC2=O)cc1 [Example 19, 2-morpholin-4-yl-5-(3-p-tolylallylidene)thiazol-4-one] | 31.4% | 11.7% | 10.8% | 8.82% | 5.11 | 4.89 | 
O=C1N=C(N2CCOCC2)SC1=Cc1ccc(OCc2ccccc2)cc1 [Example 21, 5-(4-benzyloxybenzylidene)-2-morpholin-4-ylthiazol-4-one] | 50.1% | 55.8% | 28.5% | 36.5% | 5.18 | 5.07 | 
O=C1N=C(N2CCSCC2)SC1=Cc1ccccc1C(F)(F)F [Example 22, 2-thiomorpholin-4-yl-5-(2-trifluoromethylbenzylidene)thiazol-4-one] | 88.1% | 116% | 80.8% | 64% | 5.07 | 5.04 | 
O=C1N=C(N2CCSCC2)SC1=Cc1ccc(OC(F)(F)F)cc1 [Example 24, 2-thiomorpholin-4-yl-5-(4-trifluoromethoxybenzylidene)thiazol-4-one] | 91.3% | 110% | 61.6% | 61.3% | 4.93 | < 4.60 | 
O=C1N=C(N2CCSCC2)SC1=CC=Cc1ccccc1 [Example 25, 5-(3-phenylallylidene)-2-thiomorpholin-4-ylthiazol-4-one] | 87.2% |  | 37.6% | 29.1% |  |  | 80.77%
Cc1ccc(C=C2SC(N3CCN(c4ncccc4Cl)CC3)=NC2=O)cc1 [Example 30, 2-[4-(3-chloropyridin-2-yl)piperazin-1-yl]-5-(4-methylbenzylidene)thiazol-4-one] | 97% | 0.92% | 73.3% | 0.06% |  |  | 
CC(=CC=C1SC(N2CCOCC2)=NC1=O)c1ccc(C)cc1 [Example 33, 2-morpholin-4-yl-5-(3-p-tolylbut-2-enylidene)thiazol-4-one] | 64.8% | 49.6% | 14.7% | 25.7% |  |  | 
